Each structure is given as a SMILES string.

What all share (assay type): cell-based, murine
One series deals with PGE2. Nature of the series: ELISA of PGE2 in LPS-activated BV-2 culture medium. The settings on record: 5, 10 and 20 µM, LPS 24 h. As for the experimental part: (§1) To measure TNF-α, IL-6, and PGE2, BV-2 cells were seeded in a 24-well plate at a density of 3 × 10^5 cells/well. The cells were treated with LPS (100 ng/mL) in the presence or absence of compound 3 for 24 h, and the media was collected and centrifuged. IL-6, TNF-α, and PGE2 produced in microglial culture supernatants […] were measured by competitive enzyme immunoassay kits (R&D systems, Minneapolis, MN, USA) in accordance with the manufacturer’s protocol.
(§2) Fig. 2 Effect of compound 3 on LPS-induced iNOS and COX2 expression in BV-2 cells. BV-2 cells were pretreated with various concentrations (5, 10, and 20 µM) of compound 3 for 30 min and activated with 100 ng/mL LPS. After 6 h, the cells were collected for analysis of iNOS and COX-2 expression using western blot analysis (a–c). Similarly, LPS activation was made for 24 h as chronic BV2 activation and the iNOS and COX-2 expression was measured (d). α-Tubulin was used as the loading control. The densitometric analysis of bands was performed as described in the methods section. After 24 h, the culture medium was subsequently collected to measure the quantity of PGE2 (e), IL-6 (f), and TNF-α (g) using ELISA analysis. […]
In general terms: In an ELISA, binding on a coated surface is turned into a signal by an enzyme label.

In another series the test system is BV2 cells. Nature of the series: β-amyloid induced BV2 cell cytotoxicity. The text has this: Here, we have investigated whether the compound 3 has any direct protective effects on microglia and neurons against LPS and TNF-α induced direct toxicity. As the aim of this study is to check the effectiveness of compound 3 against neurodegenerative conditions, here we checked the effect of this compound to protect microglial cells against β-amyloid induced cytotoxicity as shown in Fig. 5a. […] LPS treatment was unable to induce cellular toxicity to N2a cells (Fig. 5b). […] Compound 3 mediated neuroprotection in N2a cells is due to the inhibition of proinflammatory cytokines produced by LPS activated microglia.
Fig. 5 Cytoprotection of compound 3 in β-amyloid induced BV2 cell and LPS and TNF-α induced N2a cell toxicity

The next series deals with N2a cells. The experiment in a line: Neuronal cell viability (MTT) of N2a cells given conditioned media from LPS-stimulated BV-2 cells. To be noted: Mus musculus, MTT after 24 h, read-out: N2a cell viability, % of the only LPS treated control value. The protocol:
N2a cells were used as a representative neuronal cell line for the examination of apoptotic neuron viability using direct treatment of compound 3 with TNF-α activation as well as conditioned media (CM) from LPS-stimulated BV-2 cells treated with compound 3 [28]. This assay was performed following the methods described in our previous study, with slight modifications. To measure neuron viability, BV-2 cells were first seeded and treated with 100 ng/mL LPS in the presence or absence of compound 3. After 24 h, the CM was collected and transferred to N2a cells for a further 24 h. The cell viability of N2a cells was measured using the MTT assay. Well differentiated neuronal cells were used for the experimental purpose as shown in Additional file 1: Fig. S1.
Fig. 4 Neuroprotection of compound 3 in LPS-activated microglia in N2a cells. BV-2 microglial cells were pretreated with 5, 10, and 20 µM compound 3 for 30 min and stimulated with 100 ng/mL of LPS for 24 h. After 24 h of LPS treatment, the conditioned media (CM) were collected and transferred to N2a cells. After 24 h, MTT assay was done in the same CM treated N2a cells (a) and FACS analysis (b–h). An annexin V/PI apoptosis kit was used to quantify the percentage of cells undergoing apoptosis and necrosis (x-axis, annexin V; y-axis, PI) by using FACS analysis. CM-LPS treatment alone induced apoptosis and necrosis in N2a cells (g, h). […]

Another series relates to TNF-α. Nature of the series: ELISA of TNF-α in LPS-activated BV-2 culture medium. The settings on record: 10 and 20 µM, LPS 24 h. As for the experimental part:
as §1, §2

A further series has as its system BV-2 cells. The experiment in a line: MTT cell viability of LPS-activated BV-2 cells. The settings on record: at 20 µM. As for the experimental part:
(§3) […] or MTT assay was performed as described by our previous publication with slight modification. In order to measure MTT and NO production, BV-2 cells were plated into a 96-well plate at a density of 4 × 10^4 cells/well. […] Then, nitrite (a soluble oxidation product of NO) was detected in the culture media by using the Griess reaction. The supernatant (50 µL) was collected and mixed with an equal volume of Griess reagent (1% sulfanilamide in phosphoric acid and 0.1% N-1-napthylethylenediamine dihydrochloride). The absorbance was measured at 570 nm by using a microplate reader. Sodium nitrite was used to create a standard curve from which the NO2 concentration was calculated. The cell viability was evaluated by spectrophotometrically measuring the reduction of yellow 3-[4,5-dimethylthiazol-2-yl]-2,5-diphenyltetrazolium bromide (MTT) to purple formazan crystals. MTT was dissolved in DMEM, added to the culture plate containing cells at a final concentration of 0.5 mg/mL, and incubated for 1 h. The medium containing the MTT solution was carefully removed, and 200 µL DMSO was added to each well. After solubilizing the stained cells to produce a formazan-colored solution, the optical density (OD) was measured on a microplate reader at 570 nm, and the results were expressed as a percentage of the LPS-treated group. The same plate was used for the NO and MTT assays. The cell supernatant was used for the NO assay, and the plated cells were used for the MTT assay.
(§4) The NO production and cell viability of LPS-activated BV-2 cells were measured after treatment with azine derivatives using Griess reagent and MTT assay, respectively.

Series [1] can be described thus: MTT cell viability of LPS-activated BV-2 cells. To be noted: mouse, LPS-activated BV-2 microglial cells; 20 µM compound; percentage of the LPS-only treatment group; mean ± standard deviation, three experiments. The protocol:
as §3, §4

A word on the viability: it is a read-out of living cells in per cent, often relative to untreated cells. Turning to `COc1cc(/C=C/C=N/N=C/C=C/c2ccc(O)c(OC)c2)ccc1O` [Compound 3, 4,4′-(1E,1′E,3E,3′E)-3,3′-(hydrazine-1,2-diylidene)bis(prop-1-ene-1-yl-3-ylidene)bis(2-methoxyphenol)], the “LPS-activated PGE2 production” value with PGE2 was “reduced”. Moreover, the “Microglial cell death against β-amyloid” value in the series with BV2 cells is “significantly prevented”. Besides, the viability at 10 µM in the series on N2a cells (CM of BV-2 cells treated with 10 µM compound + LPS) is 199%. Further, the viability at 20 µM in the series on N2a cells (CM of BV-2 cells treated with 20 µM compound + LPS) amounted to 398%. Further, the TNF-α secretion result in the series on TNF-α is given as “significant reduction”. Moreover, in the series on BV-2 cells, the “Cytotoxicity to BV-2 cells” value was “without cytotoxicity”. Besides, the viability at 24 h, 20 µM in series [1] turned out to be 101 ± 2.53%.

These data come from publication PMC5745756, “N,N-disubstituted azines attenuate LPS-mediated neuroinflammation in microglia and neuronal apoptosis via inhibiting MAPK signaling pathways” (BMC Neuroscience, 2017).
